Test results taken from US20240150377A1, “MODULATORS OF CYSTIC FIBROSIS TRANSMEMBRANE CONDUCTANCE REGULATOR” (VERTEX PHARMACEUTICALS INCORPORATED, priority 2020, published 2024).

Biological target: T1, CFTR (Homo sapiens, UniProt P13569, DEL508-508)
T1 construct: endogenous in cells; host or cells: primary human bronchial epithelial cells from CF subjects (F508del/MF-HBE), differentiated at air-liquid interface
Assay: HBE2 assay: Ussing chamber assay of CFTR-mediated short-circuit currents
Type: cell-based
Conditions: F508del/MF-HBE cells, with 44 nM potentiator, 18-24 hours, 20% human serum
How it was run: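 Corrector activity read as CFTR-dependent ISC (μA/cm^2): peak forskolin current minus post-inhibitor steady state. Measured at 37 °C, voltage clamp at 0 mV, on F508del/MF-HBE epithelia grown >14 days air-liquid interface in Ussing chambers.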

T1 sequence (P13569 with tags, fused parts or gaps DEL508-508): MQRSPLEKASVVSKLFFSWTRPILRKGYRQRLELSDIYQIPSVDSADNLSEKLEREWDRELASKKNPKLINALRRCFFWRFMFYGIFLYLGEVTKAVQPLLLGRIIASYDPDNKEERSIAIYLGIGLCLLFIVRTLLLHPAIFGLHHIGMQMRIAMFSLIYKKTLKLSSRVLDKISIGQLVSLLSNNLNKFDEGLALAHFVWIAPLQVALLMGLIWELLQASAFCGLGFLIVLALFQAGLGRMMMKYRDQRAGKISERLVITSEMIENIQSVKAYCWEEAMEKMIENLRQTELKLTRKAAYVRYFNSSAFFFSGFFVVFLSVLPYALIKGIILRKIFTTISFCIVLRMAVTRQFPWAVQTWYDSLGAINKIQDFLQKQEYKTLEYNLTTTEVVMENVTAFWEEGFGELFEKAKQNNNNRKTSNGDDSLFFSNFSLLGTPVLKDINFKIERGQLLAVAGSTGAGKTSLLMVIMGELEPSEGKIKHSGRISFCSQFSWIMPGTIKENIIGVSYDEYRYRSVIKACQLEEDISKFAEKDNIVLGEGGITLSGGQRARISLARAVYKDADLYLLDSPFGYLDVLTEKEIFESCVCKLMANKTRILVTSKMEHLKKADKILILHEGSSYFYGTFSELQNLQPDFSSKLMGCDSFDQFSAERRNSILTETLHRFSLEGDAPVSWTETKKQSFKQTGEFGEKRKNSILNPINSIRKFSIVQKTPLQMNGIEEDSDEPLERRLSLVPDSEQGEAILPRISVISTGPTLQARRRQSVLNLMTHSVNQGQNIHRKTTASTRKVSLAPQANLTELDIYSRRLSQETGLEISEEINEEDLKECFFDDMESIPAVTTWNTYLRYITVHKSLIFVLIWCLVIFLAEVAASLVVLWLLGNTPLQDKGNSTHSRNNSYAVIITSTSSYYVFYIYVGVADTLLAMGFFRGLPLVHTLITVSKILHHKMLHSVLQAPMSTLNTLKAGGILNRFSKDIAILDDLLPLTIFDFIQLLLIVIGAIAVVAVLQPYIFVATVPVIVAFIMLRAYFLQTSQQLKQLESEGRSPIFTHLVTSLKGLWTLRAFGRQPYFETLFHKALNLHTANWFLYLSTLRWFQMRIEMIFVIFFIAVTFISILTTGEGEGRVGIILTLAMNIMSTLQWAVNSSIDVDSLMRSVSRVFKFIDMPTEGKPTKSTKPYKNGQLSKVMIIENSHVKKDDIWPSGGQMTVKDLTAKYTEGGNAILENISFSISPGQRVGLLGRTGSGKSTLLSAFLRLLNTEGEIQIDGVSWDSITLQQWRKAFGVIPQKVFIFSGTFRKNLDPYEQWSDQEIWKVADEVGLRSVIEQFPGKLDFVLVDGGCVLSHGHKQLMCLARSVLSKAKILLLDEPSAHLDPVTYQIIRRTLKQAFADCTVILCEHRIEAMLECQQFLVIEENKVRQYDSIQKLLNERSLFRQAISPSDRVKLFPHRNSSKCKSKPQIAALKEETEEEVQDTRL

Compound | HBE2 Activity at 3 μM (%) (3 μM corrector) | further results
Cc1cccc(C)c1-c1cc2nc(n1)NS(=O)(=O)c1cccc(c1)C(=O)N(Cc1cncc(N(C)C3CCC3)n1)[C@H](C1CC(C)(C)C1)CO2 (stereo in doubt) [Compound 1895] | ++ (++ is 30-60%) | 
Cc1cccc(C)c1-c1cc2nc(n1)NS(=O)(=O)c1cccc(c1)C(=O)N(Cc1cncc(N(C)C3CCC3)n1)[C@H](C1CC(C)(C)C1)CO2 (stereo in doubt) [Compound 1896] | +++ (+++ is >60+) | 
Cc1cccc(C)c1-c1cc2nc(n1)NS(=O)(=O)c1cccc(c1)C(=O)N(Cc1cncc(N3CCCC[C@@H]3C)n1)[C@H](C1CC(C)(C)C1)CO2 (stereo in doubt) [Compound 1897] | + (+ is <300)) | 
Cc1cccc(C)c1-c1cc2nc(n1)NS(=O)(=O)c1cccc(c1)C(=O)N(Cc1cncc(N3CCC4CCC43)n1)[C@H](COC1CC1)CO2 (stereo in doubt) [Compound 1909] | +++ (+++ is >60+) | 
Cc1cccc(C)c1-c1cc2nc(n1)NS(=O)(=O)c1cccc(c1)C(=O)N(Cc1cnc3cc(C(C)C)n(C)c3n1)[C@H](C[C@H]1CCCOC1)CO2 (stereo in doubt) [Compound 1932] | +++ (+++ is >60+) | 
Cc1cccc(C)c1-c1cc2nc(n1)NS(=O)(=O)c1cccc(c1)C(=O)N(Cc1cncc(N(C)C3CCC3)n1)[C@H](C[C@H]1CCCOC1)CO2 (stereo in doubt) [Compound 1938] | +++ (+++ is >60+) | 
Cc1cccc(C)c1-c1cc2nc(n1)NS(=O)(=O)c1cccc(c1)C(=O)N(Cc1cncc(N3CCC[C@H]3C)n1)[C@H](C[C@H]1CCCOC1)CO2 (stereo in doubt) [Compound 1940] | +++ (+++ is >60+) | 
Cc1cccc(C)c1-c1cc2nc(n1)NS(=O)(=O)c1cccc(c1)C(=O)N(Cc1cncc(N3CCCC[C@H]3C)n1)[C@H](C[C@H]1CCCOC1)CO2 (stereo in doubt) [Compound 1942] | +++ (+++ is >60+) | 
Cc1cccc(C)c1-c1cc2nc(n1)NS(=O)(=O)c1cccc(c1)C(=O)N(Cc1cncc(N3CCCO[C@H]4CC[C@H]43)n1)[C@H](CC(C)(C)C)CO2 (stereo in doubt) [Compound 1951] | +++ (+++ is >60+) | 
Cc1cccc(C)c1-c1cc2nc(n1)NS(=O)(=O)c1cccc(c1)C(=O)N(Cc1cncc(N3CCCO[C@H]4CC[C@H]43)n1)[C@H](CC(C)(C)C)CO2 (stereo in doubt) [Compound 1952] | +++ (+++ is >60+) | 
Cc1cccc(C)c1-c1cc2nc(n1)NS(=O)(=O)c1cccc(c1)CN(Cc1ncc(OC(C)C)cn1)[C@H](CC(C)(C)C)CO2 [Compound 1298] |  | HBE2 Activity at 3 μM (%) (3 μM): ++ (++ is 30-60%)
CCc1ccnc(CN2C(=O)c3cccc(c3)S(=O)(=O)Nc3nc(cc(-c4c(C)cccc4C)n3)OC[C@H]2CC(C)(C)C)n1 [Compound 1302, (11R)-6-(2,6-Dimethylphenyl)-11-(2,2-dimethylpropyl)-12-[(4-ethylpyrimidin-2-yl)methyl]-2,2-dioxo-9-oxa-2λ^6-thia-3,5,12,19-tetrazatricyclo[12.3.1.14,8]nonadeca-1(18),4,6,8(19),14,16-hexaen-13-one] |  | HBE2 Activity at 3 μM (%) (3 μM): +++ (+++ is >60+)
Cc1cccc(C)c1-c1cc2nc(n1)NS(=O)(=O)c1cccc(c1)C(=O)N(Cc1ncc(OC3CCCC3)c[n+]1[O-])[C@H](CC(C)C)CO2 [Compound 1305, (11R)-12-[[5-(Cyclopentoxy)-1-oxido-pyrimidin-1-ium-2-yl]methyl]-6-(2,6-dimethylphenyl)-11-isobutyl-2,2-dioxo-9-oxa-2λ^6-thia-3,5,12,19-tetrazatricyclo[12.3.1.14,8]nonadeca-1(18),4(19),5,7,14,16-hexaen-13-one] |  | HBE2 Activity at 3 μM (%) (3 μM): +++ (+++ is >60+)
Cc1cccc(C)c1-c1cc2nc(n1)NS(=O)(=O)c1cccc(c1)C(=O)N(Cc1cncc(N(C)C3CCC3)n1)[C@H](CC(C)(C)C)CO2 [Compound 1310, (11R)-12-[[6-[Cyclobutyl(methyl)amino]pyrazin-2-yl]methyl]-6-(2,6-dimethylphenyl)-11-(2,2-dimethylpropyl)-2,2-dioxo-9-oxa-2λ^6-thia-3,5,12,19-tetrazatricyclo[12.3.1.14,8]nonadeca-1(18),4(19),5,7,14,16-hexaen-13-one] |  | HBE2 Activity at 3 μM (%) (3 μM): +++ (+++ is >60+); EC50: < 1 µM; Emax (read-out: HBE2 Max activity (%)): > 60%
Cc1cccc(C)c1-c1cc2nc(n1)NS(=O)(=O)c1cccc(c1)C(=O)N(Cc1ncc(N3CCC(C)(C)CC3)cn1)[C@H](CCC1CC1)CO2 [Compound 1311, (11R)-11-(2-Cyclopropylethyl)-6-(2,6-dimethylphenyl)-12-[[5-(4,4-dimethyl-1-piperidyl)pyrimidin-2-yl]methyl]-2,2-dioxo-9-oxa-2^6-thia-3,5,12,19-tetrazatricyclo[12.3.1.14,8]nonadeca-1(18),4(19),5,7,14,16-hexaen-13-one] |  | HBE2 Activity at 3 μM (%) (3 μM): +++ (+++ is >60+)
Cc1cccc(C)c1-c1cc2nc(n1)NS(=O)(=O)c1cccc(c1)C(=O)N(Cc1coc(N(C)C3CCC3)n1)[C@H](CC(C)(C)C)CO2 [Compound 1318, (11R)-12-[[2-[Cyclobutyl(methyl)amino]oxazol-4-yl]methyl]-6-(2,6-dimethylphenyl)-11-(2,2-dimethylpropyl)-2,2-dioxo-9-oxa-2λ^6-thia-3,5,12,19-tetrazatricyclo[12.3.1.14,8]nonadeca-1(18),4(19),5,7,14,16-hexaen-13-one] |  | HBE2 Activity at 3 μM (%) (3 μM): +++ (+++ is >60+)
Cc1cccc(C)c1-c1cc2nc(n1)NS(=O)(=O)c1cccc(c1)C(=O)N(Cc1cnc(C)c(N(C)CC(C)C)n1)[C@H](CC(C)(C)C)CO2 [Compound 1322, (11R)-6-(2,6-Dimethylphenyl)-11-(2,2-dimethylpropyl)-12-[[6-[isobutyl(methyl)amino]-5-methyl-pyrazin-2-yl]methyl]-2,2-dioxo-9-oxa-2λ^6-thia-3,5,12,19-tetrazatricyclo[12.3.1.14,8]nonadeca-1(18),4(19),5,7,14,16-hexaen-13-one] | +++ (+++ is >60+) | 
Cc1cccc(C)c1-c1cc2nc(n1)NS(=O)(=O)c1cccc(c1)C(=O)N(Cc1cncc(N(C)C3CCC3)n1)[C@@H]1CN(C3CC4(CCCC4)C3)C[C@H]1O2 [Compound 1323, (3R,7R)-8-[[6-[Cyclobutyl(methyl)amino]pyrazin-2-yl]methyl]-19-(2,6-dimethylphenyl)-15,15-dioxo-5-spiro[3.4]octan-2-yl-2-oxa-15λ^6-thia-5,8,16,18,21-pentazatetracyclo[15.3.1.110,14.03,7]docosa-1(20),10,12,14(22),17(21),18-hexaen-9-one] | ++ (++ is 30-60%) | 
Cc1cccc(C)c1-c1cc2nc(n1)NS(=O)(=O)c1cccc(c1)C(=O)N(Cc1cncc(N(C)C3CCC3)n1)[C@H](COC(C)C)CO2 [Compound 1324, (11R)-12-[[6-[Cyclobutyl(methyl)amino]pyrazin-2-yl]methyl]-6-(2,6-dimethylphenyl)-11-(isopropoxymethyl)-2,2-dioxo-9-oxa-2λ^6-thia-3,5,12,19-tetrazatricyclo[12.3.1.14,8]nonadeca-1(18),4(19),5,7,14,16-hexaen-13-one] | +++ (+++ is >60+) | 
CCC(C)(C)C[C@@H]1COc2cc(-c3c(C)cccc3C)nc(n2)NS(=O)(=O)c2cccc(c2)C(=O)N1Cc1cncc(N(C)C2CCC2)n1 [Compound 1329, 12-[[6-[cyclobutyl(methyl)amino]pyrazin-2-yl]methyl]-11-(2,2-dimethylbutyl)-6-(2,6-dimethylphenyl)-2,2-dioxo-9-oxa-2λ^6-thia-3,5,12,19-tetrazatricyclo[12.3.1.14,8]nonadeca-1(18),4,6,8(19),14,16-hexaen-13-one] | ++ (++ is 30-60%) | 
Cc1cccc(C)c1-c1cc2nc(n1)NS(=O)(=O)c1cccc(c1)C(=O)N(Cc1cncc(N3CCC[C@H]3C)n1)[C@H](CC1CCCCC1)CO2 [Compound 1331, (11R)-11-(Cyclohexylmethyl)-6-(2,6-dimethylphenyl)-12-[[6-[(2R)-2-methylpyrrolidin-1-yl]pyrazin-2-yl]methyl]-2,2-dioxo-9-oxa-2^6-thia-3,5,12,19-tetrazatricyclo[12.3.1.14,8]nonadeca-1(18),4(19),5,7,14,16-hexaen-13-one] | +++ (+++ is >60+) | 
Cc1cccc(C)c1-c1cc2nc(n1)NS(=O)(=O)c1cccc(c1)C(=O)N(Cc1cncc(N3CCCOC4CCC43)n1)[C@H](CC(C)(C)C)CO2 (stereo partly drawn) [Compound 1332, (11R)-6-(2,6-Dimethylphenyl)-11-(2,2-dimethylpropyl)-12-[[6-(2-oxa-6-azabicyclo[5.2.0]nonan-6-yl)pyrazin-2-yl]methyl]-2,2-dioxo-9-oxa-2λ^6-thia-3,5,12,19-tetrazatricyclo[12.3.1.14,8]nonadeca-1(18),4(19),5,7,14,16-hexaen-13-one] | +++ (+++ is >60+) | 
Cc1cccc(C)c1-c1cc2nc(n1)NS(=O)(=O)c1cccc(c1)C(=O)N(Cc1cnc3oc(C(C)C)cc3n1)[C@H](CC(C)(C)C)CO2 [Compound 1333, (11R)-6-(2,6-Dimethylphenyl)-11-(2,2-dimethylpropyl)-12-[(6-isopropylfuro[2,3-b]pyrazin-2-yl)methyl]-2,2-dioxo-9-oxa-2λ6-thia-3,5,12,19-tetrazatricyclo[12.3.1.14,8]nonadeca-1(18),4(19),5,7,14,16-hexaen-13-one] | +++ (+++ is >60+) | 
Cc1cccc(C)c1-c1cc2nc(n1)NS(=O)(=O)c1cccc(c1)C(=O)N(Cc1cnc3cc(C(C)C)n(C)c3n1)[C@H](CC1CCCC1)CO2 [Compound 1334, (11R)-11-(Cyclopentylmethyl)-6-(2,6-dimethylphenyl)-12-[(6-isopropyl-5-methyl-pyrrolo[2,3-b]pyrazin-3-yl)methyl]-2,2-dioxo-9-oxa-2λ^6-thia-3,5,12,19-tetrazatricyclo[12.3.1.14,8]nonadeca-1(18),4(19),5,7,14,16-hexaen-13-one] | +++ (+++ is >60+) | 
